Measurements as given in PubChem BioAssay (NCI).
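Cultured in 96-well plates, cells were exposed to test compound for 48 hours across five concentrations. The concentration for full growth arrest is given as TGI.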 Where a SMILES comes first, the peptide text is derived from it. [ ]: non-standard residue; d: D form. The star is where a group is joined. Bn2Val = CC(C)[C@@H](C(=O)*)N(Cc1ccccc1)Cc1ccccc1; NHPiperonyl = c1cc2c(cc1CN*)OCO2; NMeV = CN[C@H](C(=O)O)C(C)C; dNMeA = CN[C@H](C)C(=O)O

Key:
Experiment in all cases: growth of human tumour cells (NCI), 48 h
T-47D breast = tested on: T-47D breast
PC-3 prostate = tested on: PC-3 prostate
TK-10 renal = tested on: TK-10 renal
EKVX NSCLC = tested on: EKVX NSCLC
NCI/ADR-RES ovarian = tested on: NCI/ADR-RES ovarian
SK-MEL-2 melanoma = tested on: SK-MEL-2 melanoma
SF-268 CNS = tested on: SF-268 CNS
NCI-H460 lung = tested on: NCI-H460 lung
ACHN renal = tested on: ACHN renal
SK-MEL-5 melanoma = tested on: SK-MEL-5 melanoma
SF-295 CNS = tested on: SF-295 CNS
NCI-H23 lung = tested on: NCI-H23 lung
OVCAR-4 ovarian = tested on: OVCAR-4 ovarian
K-562 leukemia = tested on: K-562 leukemia
OVCAR-8 ovarian = tested on: OVCAR-8 ovarian
M14 melanoma = tested on: M14 melanoma
HL-60(TB) leukemia = tested on: HL-60(TB) leukemia
RPMI-8226 leukemia = tested on: RPMI-8226 leukemia
DU-145 prostate = tested on: DU-145 prostate

Structure (SMILES)	TGI (T-47D breast) [µM]	TGI (PC-3 prostate) [µM]	TGI (TK-10 renal) [µM]	TGI (EKVX NSCLC) [µM]	TGI (NCI/ADR-RES ovarian) [µM]	TGI (SK-MEL-2 melanoma) [µM]	TGI (SF-268 CNS) [µM]	TGI (NCI-H460 lung) [µM]	TGI (ACHN renal) [µM]	TGI (SK-MEL-5 melanoma) [µM]	TGI (SF-295 CNS) [µM]	TGI (NCI-H23 lung) [µM]	TGI (OVCAR-4 ovarian) [µM]	TGI (K-562 leukemia) [µM]	TGI (OVCAR-8 ovarian) [µM]	TGI (M14 melanoma) [µM]	TGI (HL-60(TB) leukemia) [µM]	TGI (RPMI-8226 leukemia) [µM]	TGI (DU-145 prostate) [µM]
Cn1cc(S(=O)(=O)NC(=O)Nc2ccc(Cl)cc2)c(=O)c2ccc(Cl)cc21	> 100	> 100	> 100	> 100	> 100	> 100	> 100	> 100	> 100	> 100	> 100	> 100	> 100	> 100	> 100	> 100	–	–	–
Clc1ccc(/C=c2\nc(-c3ccccc3)n3c2nc2ccccc23)cc1	–	87.8	> 100	71.4	> 100	> 100	> 100	> 100	50.6	> 100	> 100	> 100	> 100	> 100	> 100	> 100	> 100	> 100	> 100
CC1OC1P(=O)(O)O (stereo not given)	> 100	> 100	> 100	> 100	–	> 100	> 100	> 100	> 100	> 100	> 100	> 100	> 100	> 100	> 100	–	–	> 100	> 100
[N-]=[N+]=CC(=O)OC1CCc2ccccc21 (stereo not given)	–	> 100	> 100	> 100	–	> 100	> 100	> 100	30.3	> 100	> 100	> 100	> 100	> 100	–	–	> 100	> 100	48.7
CC1(OCc2ccccc2)C(=O)N2C1N(C(=O)OCc1ccccc1)CC2(C)C (stereo not given)	–	–	> 100	> 100	–	> 100	> 100	> 100	> 100	33.5	> 100	> 100	> 100	> 100	> 100	> 100	90.5	95.7	–
O=C1c2ccccc2-c2nc(-c3cccs3)cc3c2c1nc1ccccc13	–	> 100	> 100	> 100	> 100	32	56.8	> 100	> 100	–	> 100	38.8	> 100	> 100	> 100	18.3	26.5	> 100	31
NCc1ccc(O)c(O)c1O	71.6	> 100	> 100	> 100	–	57.2	61.6	34	55.4	56	> 57.7	> 67.3	41	60.6	49.1	27.7	59.1	64.8	> 100
CC(C)C(C)C(O)C(O)C(C)C1CCC2C3COC(=O)C4CC(O)C(O)CC4(C)C3CCC12C (stereo not given)	> 100	> 100	> 100	> 100	> 100	> 100	> 100	> 100	> 100	> 100	> 100	> 100	> 100	> 100	> 100	> 100	–	–	> 100
O=C1CSC(c2c[nH]c3ccccc23)N1c1cccc([N+](=O)[O-])c1 (stereo not given)	> 100	> 100	> 100	> 100	–	–	> 100	> 100	–	> 100	> 100	> 100	> 100	> 100	> 100	> 100	> 100	> 100	> 100
OC1C2CCC3C2CC(C(O)(c2ccccc2)c2ccccc2)C13 (stereo not given)	> 100	> 100	> 100	> 100	> 100	48.2	> 100	> 100	> 100	> 100	> 100	> 100	> 100	> 100	> 100	> 100	–	–	> 100
CC(C)NC1CCCCC2c3cc(F)ccc3[C@]12O (stereo not given in full)	–	–	> 100	> 100	–	> 100	> 100	> 100	> 100	> 100	> 100	> 100	> 100	> 100	> 100	> 100	> 100	> 100	–
CC(=O)OC1COC(n2c(O)c(N=Nc3ccc([N+](=O)[O-])cc3)c3cc(Br)c([N+](=O)[O-])cc32)C(OC(C)=O)C1OC(C)=O (stereo not given)	–	–	> 100	> 100	–	> 100	> 100	> 100	93.6	> 100	67.1	> 100	> 100	> 100	> 100	> 100	> 100	> 100	–
CCOc1ccccc1NC(=O)CSc1nnc(Cc2ccccc2)o1	–	–	> 100	–	–	63	64.4	44.8	46.3	38.8	> 100	52.1	63.5	> 100	54.8	66.5	> 100	> 100	–
CC1(C)CC(=O)c2c([nH]c(=S)c(C#N)c2-c2ccc(Br)cc2)C1	–	> 100	> 100	> 100	> 100	76.6	> 100	> 100	> 100	> 100	> 100	> 100	> 100	> 100	> 100	> 100	> 100	–	> 100
c1ccc(C2(c3ccccc3)S/C(=C3/SC(c4ccccc4)(c4ccccc4)c4ccccc43)c3ccccc32)cc1	–	> 100	> 100	> 100	> 100	> 100	> 100	> 100	> 100	> 100	> 100	> 100	> 100	> 100	> 100	> 100	> 100	–	> 100
CC(C)[C@H](NC(=O)[C@H](C(C)C)N(Cc1ccccc1)Cc1ccccc1)C(=O)N(C)[C@H](C(=O)N1CCC[C@H]1C(=O)N(C)[C@H](C)C(=O)NCc1ccc2c(c1)OCO2)C(C)C (Bn2Val-V[NMeV]P[dNMeA]-NHPiperonyl)	–	89.9	> 100	> 100	> 100	25.5	> 74.5	> 100	> 100	–	> 100	> 100	> 100	54	> 100	> 100	2.8	6.2	> 33.2
S=C(Nc1ccc(Cl)cc1)c1ccc(CN2CCCCC2)s1	–	73.4	–	35.1	> 100	> 100	> 100	21.9	60.2	15.1	–	8.63	80.7	13.9	27.1	26.7	6.97	20.2	> 100
O=C1OCCC12CN(Cc1ccccc1)N=N2 (stereo not given)	> 100	> 100	> 100	–	> 100	> 100	> 100	> 100	> 100	> 100	> 100	> 100	> 100	> 100	> 100	> 100	–	> 100	> 100
CN(C)CCNC(=O)c1ccccc1Nc1c(Cl)cccc1Cl	–	–	20.7	21.6	–	–	31.5	–	21	9.96	–	30.9	29.7	36.2	27.8	31	27	29.1	–
NC(CCCNc1ccc(O)cc1)C(=O)O (stereo not given)	–	–	97.7	> 88.8	–	> 66.8	> 62.6	> 100	> 57.4	63.8	> 100	> 100	31.7	> 72.1	> 62.2	> 66.9	58.3	54.8	–
CC(/C=C/c1ccccc1)=N\N=C(C)\C=C\c1ccccc1	–	–	> 100	> 100	–	> 100	> 100	> 100	> 100	> 100	> 100	> 100	> 100	> 100	> 100	> 100	> 100	> 100	–
COC(=O)C12OCC34C(CC5C(C)C6=CC(=O)OC6=CC5(C)C3C(O)C1O)OC(=O)C(OC(C)=O)C24 (stereo not given)	–	–	31.4	31	–	21	40.1	51.8	38.9	24.9	65.7	32.5	41.2	54.3	34.1	32.8	33.3	40.5	–
O=S(Nc1ccccc1)c1ccccc1Oc1ccccc1 (stereo not given)	–	> 100	> 100	79.1	> 100	–	62	> 100	> 100	> 100	> 100	> 100	–	> 100	> 100	> 100	> 100	> 100	> 100
CCN1C(=O)/C(=C\c2coc3ccccc3c2=O)SC1=S	–	–	> 100	> 100	–	> 100	> 100	> 100	> 100	> 100	> 100	> 100	> 100	> 100	> 100	> 100	> 100	> 100	–
COc1c(N2CCCCC2)c2c(=O)c3ccccc3oc2c2cc(C)oc12	–	51.5	> 100	89.1	> 100	61.6	> 100	> 100	53.7	40.7	> 100	> 100	> 100	> 100	> 100	53.6	58	50.3	77.5
Cc1ccc([N+]2=NC(c3ccc([N+](=O)[O-])cc3)=NN(c3ccccc3)C2)cc1	–	–	> 100	> 100	–	–	> 100	> 100	> 100	> 100	> 100	> 100	49	> 100	> 100	–	> 100	> 100	–
Cc1cc2nn(C3CCCCO3)nc2cc1C (stereo not given)	> 100	> 100	> 100	> 100	> 100	> 100	> 100	> 100	> 100	> 100	> 100	> 100	> 100	> 100	> 100	> 100	–	–	> 100
COc1cc(C(=O)O)cc2c1[nH]c1ccccc12	–	–	> 25	–	–	> 25	> 25	> 25	> 25	> 25	–	–	> 25	> 25	> 25	> 25	> 25	> 25	–
COc1ccc2c(c1)CC[C@@H]1C2CC[C@]2(C)C(=N\O)/C(=N/O)CC12 (stereo not given in full)	–	–	41.2	38.9	–	26.9	37.8	12.5	33.6	25.7	23.9	23.1	–	36	33.7	32.9	35.7	35.2	–
